Source: patent publication US20090124657A1, “PHARMACEUTICAL COMPOSITIONS COMPRISING MONTELUKAST” (priority 2007, published 2009)

Assay: Susceptibility of montelukast sodium to degradation
Assay type: physicochemical

- Susceptibility to oxidative degradation (including atmospheric oxygen) (significant increase in mok-3 sulfoxide impurity): highly susceptible
- Susceptibility to acid hydrolysis (significant increase in styrene impurity): highly susceptible
SMILES: CC(C)(O)c1ccccc1CC[C@@H](SCC1(CC(=O)O)CC1)c1cccc(/C=C/c2ccc3ccc(Cl)cc3n2)c1 [Montelukast sodium, [R-(E)]-1-[[[1-[3-[2-(7-chloro-2-quinolinyl)ethenyl]phenyl]-3-[2-(1-hydroxy-1-methylethyl)phenyl]propyl]thio]methyl]cyclopropaneacetic acid]
